We go through 7 compounds from patent US20210253511A1, “COMPOUNDS AND USES FOR THE TREATMENT AND PREVENTION OF DISEASES AND CONDITIONS ASSOCIATE WITH OR AGGREVATED BY IMPARED MITOPHAGY” (Yissum Research Development Company of The Hebrew …, priority 2018, published 2021).

This assay has as its system C. elegans worms in 200 mM paraquat (PQ). Briefly: Paraquat survival assay. The assay is classed as in vivo. As to conditions: 200 mM PQ; for protective effect on worms' survival in PQ (figure legend): concentration not given, log-rank test. The protocol:
C. elegans strains were grown at 21° C. on nematode growth media (NGM) agar plates containing diamines or vehicle as a control. The NGM agar plates were prepared as described in L. Livshits, E. Gross, A method for measuring sulfide toxicity in the nematode Caenorhabditis elegans, MethodsX 4 (2017) 250-255. A suspension of 3 g sodium chloride (NaCl), 20 g Bacto agar, and 2.5 g of Bacto peptone in 1 L of double distilled water (DDW) was mixed and autoclaved. Then, the medium was cooled to 55° C. and supplemented with 1 ml of 100 mM CaCl2), 1 ml of 100 mM MgSO4, 25 ml of 1 M potassium phosphate buffer pH 6, and 1 ml of 5 mg/ml cholesterol (the cholesterol was dissolved in ethanol). Diamines or DDW (vehicle) were added to the NGM-agar solution. For RNAi NGM-agar plates, Isopropyl β-D-1-thiogalactopyranoside (IPTG) and ampicillin were added to a final concentration of 1 mM and 100 μg/ml, respectively. The NGM-agar solution was thoroughly vortex mixed and immediately poured into 35 mm petri dish (4 ml per plate). NGM-plates were covered with aluminum foil and dried for 24 h at room temperature (RT). 24 h before the experiment, plates were seeded with 100 μl bacteria (OD600=0.6, OP50 or HT115(DE3)). The seeded plates were covered with aluminum foil and dried for 24 h at RT.
To get synchronized C. elegans larvae, the method described in W. B. Wood, The Nematode Caenorhabditis Elegans, Cold Spring Harbor Laboratory 1988, was performed. In brief, hypochlorite/NaOH solution was made by mixing 1 ml of 5% solution of sodium hypochlorite, 800 μl of 2.5 N NaOH and 2.2 ml DDW to final concentrations of 0.5 N NaOH and 1.25% sodium hypochlorite. M9 buffer was made by dissolving 3 g KH2PO4, 6 g Na2HPO4, 5 g NaCl and 1 ml of MgSO4 from 1M stock in 1 litter of DDW. The solution pH was adjusted to 7 and sterilizes by filtration (with a 0.2 µm filter bottle). Gravid hermaphrodites was washed from the NGM plates into a 15 ml tube with M9 buffer and centrifuged for 2 min at 900×g, RT. Liquid was removed until 2 ml worms' suspension was left and added 2 ml of hypochlorite/NaOH solution. A 5 ml syringe with a 21-gauge needle was used to aspirate the worm suspension back and forth several times. After 3 min it was observed the state of the worms using a dissecting stereoscope. At this stage, approximately 50% of worms should appear broken and many of the embryos should float in the solution. The embryos were immediately sedimented using centrifugation (1690×g for 2 min) and carefully removed the supernatant and add 10 ml of M9 buffer. This washing step was repeated three additional times. The supernatant was removed until 2 ml remains and rotated the tube for 16 h at RT. The hatched L larvae were collected by centrifugation (1690×g for 3 min) and put ˜80 L in each seeded NGM assay plate. Grow the L1 (Day 1) for 3 days until they become young adults (Day 3).

Where [1] appears, read: compound at 0.25 mM, vs control worms.
The mark [2] stands for this setting: compound at 4 mM, vs control worms.
The mark [3] stands for this setting: tested at 0.0625 mM and 0.25 mM, not split.

Take `NCCCCCCN` [1,6-Diaminohexane]: the “survival of worms in paraquat” value was “did not have any effect” under setting [1] and “did not have any effect” under setting [2].
As for `N=C(N)NCCCCCCNC(=N)N` [1,6-Diguanidinohexane], the “protective effect on worms' survival in PQ (figure legend)” value is “significant protective effect”. Besides, the “survival of worms in paraquat” value (compound at 0.0625 mM, vs control worms) is on record as “significantly improve the survival of worms”. The “survival of worms in paraquat” value under setting [1] is listed as “significantly improve the survival of worms”.
In the case of `NOCCCCCCCCON` [1,8-diaminooxy-octane], the “protective effect on worms' survival in PQ (figure legend)” value was “significant protective effect”. For the same compound, under setting [3], the “survival of worms in paraquat” value is given as “significantly improved the survival of worms in PQ”.
The like results for `N=C(N)NCCCCCCCCNC(=N)N` [1,8-diguanidinooctane] were, in that order, “significant protective effect” and “significantly improved the survival of worms in PQ”.
On the same counts, the results for `NOCCCCCCCCCON` [1,9-diaminooxy-nonane] are “significant protective effect” and “significantly improved the survival of worms in PQ”.
Regarding `NCCCCCCCCCCN` [1,10-Diaminodecane], the “survival of worms in paraquat” value is listed as “significantly improved worms' survival” under setting [1] and “significantly decreased worms' survival” under setting [2].
The like results for `NCCCCCCCCCCCCN` [1,12-Diaminododecane] were, in that order, “did not” and “significantly improved their survival”.
